Reference: ChEMBL document CHEMBL2169878 (J Med Chem, 2012)
pIC50: −log10 of the molar value.

Assays:
[1] = system: Salmonella typhimurium; assay: Mutagenicity against Salmonella typhimurium TA98 assessed as revertants at 1 uM incubated for 90 mins followed by drug washout measured after 2 days relative to positive control; type: toxicity, organism-based; conditions: salmonella enterica subsp. enterica serovar typhimurium
[2] = system: Salmonella typhimurium; assay: Mutagenicity against Salmonella typhimurium TA98 assessed as revertants at 8 uM incubated for 90 mins followed by drug washout measured after 2 days relative to positive control; type: toxicity, organism-based; conditions: salmonella enterica subsp. enterica serovar typhimurium, 1.5 h
[3] = system: Salmonella typhimurium; assay: Mutagenicity against Salmonella typhimurium TA98 assessed as revertants at 16 uM incubated for 90 mins followed by drug washout measured after 2 days relative to positive control; type: toxicity, organism-based; conditions: salmonella enterica subsp. enterica serovar typhimurium
[4] = system: Salmonella typhimurium; assay: Mutagenicity against Salmonella typhimurium TA98 assessed as revertants at 32 uM incubated for 90 mins followed by drug washout measured after 2 days relative to positive control; type: toxicity, organism-based; conditions: salmonella enterica subsp. enterica serovar typhimurium, 1.5 h
[5] = system: Salmonella typhimurium; assay: Mutagenicity against Salmonella typhimurium TA100 assessed as revertants at 2 uM incubated for 90 mins followed by drug washout measured after 2 days relative to positive control; type: toxicity, organism-based; conditions: salmonella enterica subsp. enterica serovar typhimurium
[6] = system: Salmonella typhimurium; assay: Mutagenicity against Salmonella typhimurium TA100 assessed as revertants at 4 uM incubated for 90 mins followed by drug washout measured after 2 days relative to positive control; type: toxicity, organism-based; conditions: salmonella enterica subsp. enterica serovar typhimurium, 1.5 h
[7] = system: Salmonella typhimurium; assay: Mutagenicity against Salmonella typhimurium TA100 assessed as revertants at 9 uM incubated for 90 mins followed by drug washout measured after 2 days relative to positive control; type: toxicity, organism-based; conditions: salmonella enterica subsp. enterica serovar typhimurium, 1.5 h
[8] = system: Salmonella typhimurium; assay: Mutagenicity against Salmonella typhimurium TA100 assessed as revertants at 1 uM incubated for 90 mins followed by drug washout measured after 2 days relative to positive control; type: toxicity, organism-based; conditions: salmonella enterica subsp. enterica serovar typhimurium, 1.5 h
[9] = system: Salmonella typhimurium; assay: Mutagenicity against Salmonella typhimurium TA100 assessed as revertants at 16 uM incubated for 90 mins followed by drug washout measured after 2 days relative to positive control; type: toxicity, organism-based; conditions: salmonella enterica subsp. enterica serovar typhimurium
[10] = system: Salmonella typhimurium; assay: Mutagenicity against Salmonella typhimurium TA100 assessed as revertants at 32 uM incubated for 90 mins followed by drug washout measured after 2 days relative to positive control; type: toxicity, organism-based; conditions: salmonella enterica subsp. enterica serovar typhimurium
[11] = system: Plasmodium falciparum; assay: Resistance ratio of IC50 for chloroquine-resistant Plasmodium falciparum W2 to IC50 for chloroquine-sensitive Plasmodium falciparum D10; type: functional
[12] = system: Plasmodium falciparum; assay: Resistance ratio of IC50 for chloroquine-resistant Plasmodium falciparum K1 to IC50 for chloroquine-sensitive Plasmodium falciparum NF54; type: functional
[13] = target: T1, Chloroquine resistance transporter (Plasmodium falciparum) (UniProt Q9N623); assay: Inhibition of chloroquine-resistant Plasmodium falciparum Dd2 CRT expressed in Xenopus laevis oocyte assessed as inhibition of [3H]chloroquine uptake at 100 uM measured from 1 to 2 hrs
T1 sequence (whole entry): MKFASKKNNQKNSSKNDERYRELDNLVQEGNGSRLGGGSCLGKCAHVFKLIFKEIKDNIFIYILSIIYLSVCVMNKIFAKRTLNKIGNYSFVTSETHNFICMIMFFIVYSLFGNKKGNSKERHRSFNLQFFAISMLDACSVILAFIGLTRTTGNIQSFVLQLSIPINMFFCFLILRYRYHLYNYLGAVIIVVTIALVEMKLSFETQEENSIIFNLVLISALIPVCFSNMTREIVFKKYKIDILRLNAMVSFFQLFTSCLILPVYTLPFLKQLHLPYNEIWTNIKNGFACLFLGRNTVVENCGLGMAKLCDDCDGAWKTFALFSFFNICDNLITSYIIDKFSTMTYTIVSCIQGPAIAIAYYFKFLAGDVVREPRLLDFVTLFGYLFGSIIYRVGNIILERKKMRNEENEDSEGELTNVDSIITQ

[14] = Cytotoxicity against mouse NIH3T3 cells after 24 hrs by neutral red dye uptake assay; type: cell-based; conditions: read-out: TC50
[15] = Cytotoxicity against human HepG2 cells after 24 hrs by neutral red dye uptake assay; type: cell-based; conditions: read-out: TC50
[16] = system: Salmonella typhimurium; assay: Mutagenicity against Salmonella typhimurium TA98 assessed as revertants at 2 uM incubated for 90 mins followed by drug washout measured after 2 days relative to positive control; type: toxicity, organism-based; conditions: salmonella enterica subsp. enterica serovar typhimurium, 1.5 h
[17] = system: Salmonella typhimurium; assay: Mutagenicity against Salmonella typhimurium TA98 assessed as revertants at 4 uM incubated for 90 mins followed by drug washout measured after 2 days relative to positive control; type: toxicity, organism-based; conditions: salmonella enterica subsp. enterica serovar typhimurium
[18] = system: Salmonella typhimurium; assay: Mutagenicity against Salmonella typhimurium TA98 assessed as revertants at 17 uM incubated for 90 mins followed by drug washout measured after 2 days relative to positive control; type: toxicity, organism-based; conditions: salmonella enterica subsp. enterica serovar typhimurium
[19] = system: Salmonella typhimurium; assay: Mutagenicity against Salmonella typhimurium TA98 assessed as revertants at 33 uM incubated for 90 mins followed by drug washout measured after 2 days relative to positive control; type: toxicity, organism-based; conditions: salmonella enterica subsp. enterica serovar typhimurium, 1.5 h
[20] = system: Salmonella typhimurium; assay: Mutagenicity against Salmonella typhimurium TA98 assessed as revertants at 66 uM incubated for 90 mins followed by drug washout measured after 2 days relative to positive control; type: toxicity, organism-based; conditions: salmonella enterica subsp. enterica serovar typhimurium
[21] = system: Salmonella typhimurium; assay: Mutagenicity against Salmonella typhimurium TA100 assessed as revertants at 17 uM incubated for 90 mins followed by drug washout measured after 2 days relative to positive control; type: toxicity, organism-based; conditions: salmonella enterica subsp. enterica serovar typhimurium
[22] = system: Salmonella typhimurium; assay: Mutagenicity against Salmonella typhimurium TA100 assessed as revertants at 33 uM incubated for 90 mins followed by drug washout measured after 2 days relative to positive control; type: toxicity, organism-based; conditions: salmonella enterica subsp. enterica serovar typhimurium, 1.5 h
[23] = system: Salmonella typhimurium; assay: Mutagenicity against Salmonella typhimurium TA100 assessed as revertants at 66 uM incubated for 90 mins followed by drug washout measured after 2 days relative to positive control; type: toxicity, organism-based; conditions: salmonella enterica subsp. enterica serovar typhimurium
[24] = system: Plasmodium falciparum; assay: Antiplasmodial activity against chloroquine-sensitive Plasmodium falciparum D10 infected in human RBC after 72 hrs by parasite lactate dehydrogenase assay; type: functional, organism-based; conditions: D10, 72 h
[25] = system: Plasmodium falciparum; assay: Antiplasmodial activity against chloroquine-resistant Plasmodium falciparum W2 infected in human RBC after 72 hrs by parasite lactate dehydrogenase assay; type: functional, organism-based; conditions: W2, 72 h
[26] = system: Plasmodium falciparum; assay: Antiplasmodial activity against chloroquine-sensitive Plasmodium falciparum NF54 infected in human erythrocytes assessed as inhibition of [3H]hypoxanthine incorporation incubated for 48 hrs prior to [3H]hypoxanthine addition measured after 48 hrs by liquid scintillation counting; type: functional, organism-based
[27] = system: Plasmodium falciparum; assay: Antiplasmodial activity against chloroquine-resistant Plasmodium falciparum K1 infected in human erythrocytes assessed as inhibition of [3H]hypoxanthine incorporation incubated for 48 hrs prior to [3H]hypoxanthine addition measured after 48 hrs by liquid scintillation counting; type: functional, organism-based

For Clc1cccc(C(Nc2ccnc3cc(Cl)ccc23)c2ccc(CN3CCCC3)cc2)c1 (racemic), which Activity [1] is on record?
The Activity was 2%.

And the Activity [2]?
The Activity was 6%.

And the Activity [3]?
The Activity was 14%.

And the Activity [4]?
Its Activity is 2%.

And the Activity [5]?
Its Activity is 2%.

And the Activity [6]?
The Activity was 0%.

What about the Activity [7] of the same compound?
Its Activity is 5%.

What about the Activity [8] of the same compound?
Its Activity is 5%.

What about the Activity [9] of the same compound?
Its Activity is 10%.

What about the Activity [10] of the same compound?
The Activity was 2%.

What about the “Ratio IC50” value [11] of the same compound?
The value was 1.

And the “Ratio IC50” value [12]?
The value was 1.3.

What about the inhibition [13] of the same compound?
The inhibition was 70%.

And the CC50 at 24 h [14]?
Its CC50 at 24 h is 9 µM.

What about the CC50 at 24 h [15] of the same compound?
Its CC50 at 24 h is 31 µM.

What about the Activity [16] of the same compound?
The Activity was 2%.

And the Activity [17]?
The Activity was 0%.

What does the source list for Fc1cc(C(Nc2ccnc3cc(C(F)(F)F)ccc23)c2ccc(Cl)cc2)ccc1CN1CCCC1 (racemic)?
Activity [2]: 1%; Activity [18]: 4%; Activity [19]: 4%; Activity [20]: 8%; Activity [5]: 4%; Activity [6]: 3%; Activity [7]: 1%; Activity [21]: 4%; Activity [22]: 8%; Activity [23]: 1%; pIC50 [24]: 7.29; pIC50 [25]: 7.12; pIC50 [26]: 7.70; pIC50 [27]: 7.48; CC50 at 24 h [14]: 34 µM; CC50 at 24 h [15]: 19 µM; Activity [16]: 1%; Activity [17]: 1%
